The assay concerns influenza A virus (A/PR/8/34). Nature of the assay: microbe, parasite or virus in culture. Format: cell-based.
[1] abbreviates: Influenza A virus, PR/8, MDCK, read-out: IC50 (mean all).
The mark [2] stands for this setting: Influenza A virus, PR/8, MDCK, MDCK cells infected with A/PR/8/34, cell protection (CPE), read-out: IC50 (mean all).
The mark [3] stands for this setting: Influenza A virus, PR/8, MDCK, mean all, A/PR/8/34 infected MDCK cells, CPE assay, read-out: IC50.

IC50 data for 32 compounds are collected here from patent US8829007B2 (priority 2009, dated 2014).

pIC50: −log10 of the molar value. Like-named read-outs stand apart in the source and are kept apart here.

In the case of `COC(=O)/C=C/CN1CCC[C@@H](CNc2nc(-c3c[nH]c4ncc(Cl)cc34)ncc2F)C1` [Compound 138, (S,E)-methyl 4-(3-((2-(5-chloro-1H-pyrrolo[2,3-b]pyridin-3-yl)-5-fluoropyrimidin-4-ylamino)methyl)piperidin-1-yl)but-2-enoate], the pIC50 under setting [1] is below 4.70.

As for `Cc1ccccc1CN1CCC[C@@H](CNc2nc(-c3c[nH]c4ncc(Cl)cc34)ncc2F)C1` [Compound 139, (S)-2-(5-chloro-1H-pyrrolo[2,3-b]pyridin-3-yl)-5-fluoro-N-((1-(2-methylbenzyl)piperidin-3-yl)methyl)pyrimidin-4-amine], the pIC50 under setting [2] was below 4.70.

Consider `CC(C)(C)C(=O)CN1CCC[C@@H](CNc2nc(-c3c[nH]c4ncc(Cl)cc34)ncc2F)C1` [Compound 140, (S)-1-(3-((2-(5-chloro-1H-pyrrolo[2,3-b]pyridin-3-yl)-5-fluoropyrimidin-4-ylamino)methyl)piperidin-1-yl)-3,3-dimethylbutan-2-one], for which the pIC50 under setting [2] is below 4.70.

Consider `C[C@@H](CO)CN1CCC[C@@H](CNc2nc(-c3c[nH]c4ncc(Cl)cc34)ncc2F)C1` [Compound 141, (R)-3-((S)-3-((2-(5-chloro-1H-pyrrolo[2,3-b]pyridin-3-yl)-5-fluoropyrimidin-4-ylamino)methyl)piperidin-1-yl)-2-methylpropan-1-ol], for which the pIC50 under setting [2] was below 4.70.

Regarding `O=C(c1ccccc1Oc1ccccc1)N1CCC[C@H](CNc2nc(-c3c[nH]c4ncc(Cl)cc34)ncc2F)C1` [Compound 150, (R)-(3-((2-(5-chloro-1H-pyrrolo[2,3-b]pyridin-3-yl)-5-fluoropyrimidin-4-ylamino)methyl)piperidin-1-yl)(2-phenoxyphenyl)methanone], under setting [2], the pIC50 is 4.70 to 5.30.

For the compound `CCOc1ccccc1C(=O)N1CCC[C@H](CNc2nc(-c3c[nH]c4ncc(Cl)cc34)ncc2F)C1` [Compound 158, (R)-(3-((2-(5-chloro-1H-pyrrolo[2,3-b]pyridin-3-yl)-5-fluoropyrimidin-4-ylamino)methyl)piperidin-1-yl)(2-ethoxyphenyl)methanone], the pIC50 under setting [2] is above 5.30.

Consider `O=C(c1nccs1)N1CCCC[C@H]1CNc1nc(-c2c[nH]c3ncc(Cl)cc23)ncc1F` [Compound 165, (S)-(2-((2-(5-chloro-1H-pyrrolo[2,3-b]pyridin-3-yl)-5-fluoropyrimidin-4-ylamino)methyl)piperidin-1-yl)(thiazol-2-yl)methanone], for which the pIC50 under setting [2] was below 4.70.

With `COc1cccc(C(=O)N2CCCC[C@H]2CNc2nc(-c3c[nH]c4ncc(Cl)cc34)ncc2F)c1` [Compound 174, (S)-(2-((2-(5-chloro-1H-pyrrolo[2,3-b]pyridin-3-yl)-5-fluoropyrimidin-4-ylamino)methyl)piperidin-1-yl)(3-methoxyphenyl)methanone], the pIC50 under setting [2] was below 4.70.

In the case of `COc1cccc(C(=O)N2CCCC[C@@H]2CNc2nc(-c3c[nH]c4ncc(Cl)cc34)ncc2F)c1` [Compound 184, (R)-(2-((2-(5-chloro-1H-pyrrolo[2,3-b]pyridin-3-yl)-5-fluoropyrimidin-4-ylamino)methyl)piperidin-1-yl)(3-methoxyphenyl)methanone], the negative logarithm of the IC50 (pIC50) under setting [2] was below 4.70.

In the case of `COc1ccccc1C(=O)N1CCCC[C@@H]1CNc1nc(-c2c[nH]c3ncc(Cl)cc23)ncc1F` [Compound 190, (R)-(2-((2-(5-chloro-1H-pyrrolo[2,3-b]pyridin-3-yl)-5-fluoropyrimidin-4-ylamino)methyl)piperidin-1-yl)(2-methoxyphenyl)methanone], the pIC50 under setting [2] is 4.70 to 5.30.

For the compound `NC1CCCCC1Nc1nc(-c2c[nH]c3ncccc23)ncc1F` (stereo not drawn) [Compound 206, N-[5-fluoro-2-(1H-pyrrolo[5,4-b]pyridin-3-yl)pyrimidin-4-yl]cyclohexane-cis-1,2-diamine], the pIC50 (MDCK cells infected with A/PR/8/34, cell protection (CPE), read-out: IC50 (mean all)) is above 5.30.

Consider `CCCC(=O)N1CCC[C@@H](CNc2nc(-c3c[nH]c4ncccc34)ncc2F)C1` [Compound 225, (S)-1-(3-((5-fluoro-2-(1H-pyrrolo[2,3-b]pyridin-3-yl)pyrimidin-4-ylamino)methyl)piperidin-1-yl)butan-1-one], for which the pIC50 under setting [2] is 4.70 to 5.30.

On to `CN(C)C(=O)N1CCC[C@@H](CNc2nc(-c3c[nH]c4ncccc34)ncc2F)C1` [Compound 228, (S)-3-((5-fluoro-2-(1H-pyrrolo[2,3-b]pyridin-3-yl)pyrimidin-4-ylamino)methyl)-N,N-dimethylpiperidine-1-carboxamide], for which the pIC50 under setting [2] is 4.70 to 5.30.

With `CC(=O)N1CCCC[C@H]1CNc1nc(-c2c[nH]c3ncccc23)ncc1F` [Compound 256, (S)-1-(2-((5-fluoro-2-(1H-pyrrolo[2,3-b]pyridin-3-yl)pyrimidin-4-ylamino)methyl)piperidin-1-yl)ethanone], the pIC50 under setting [2] was 4.70 to 5.30.

Regarding `CCC(=O)N1CCCC[C@H]1CNc1nc(-c2c[nH]c3ncccc23)ncc1F` [Compound 257, (S)-1-(2-((5-fluoro-2-(1H-pyrrolo[2,3-b]pyridin-3-yl)pyrimidin-4-ylamino)methyl)piperidin-1-yl)propan-1-one], the pIC50 under setting [2] was 4.70 to 5.30.

Regarding `CCCC(=O)N1CCCC[C@H]1CNc1nc(-c2c[nH]c3ncccc23)ncc1F` [Compound 258, (S)-1-(2-((5-fluoro-2-(1H-pyrrolo[2,3-b]pyridin-3-yl)pyrimidin-4-ylamino)methyl)piperidin-1-yl)butan-1-one], under setting [2], the negative-log IC50 (pIC50) is 4.70 to 5.30.

With `O=C(c1ccccc1)N1CCCC[C@H]1CNc1nc(-c2c[nH]c3ncccc23)ncc1F` [Compound 259, (S)-(2-((5-fluoro-2-(1H-pyrrolo[2,3-b]pyridin-3-yl)pyrimidin-4-ylamino)methyl)piperidin-1-yl)(phenyl)methanone], under setting [2], the pIC50 is 4.70 to 5.30.

As to `COc1ccccc1C(=O)N1CCCC[C@H]1CNc1nc(-c2c[nH]c3ncccc23)ncc1F` [Compound 260, (S)-(2-((5-fluoro-2-(1H-pyrrolo[2,3-b]pyridin-3-yl)pyrimidin-4-ylamino)methyl)piperidin-1-yl)(2-methoxyphenyl)methanone], under setting [2], the pIC50 was below 4.70.

In the case of `CC(=O)N1CCC[C@H](CNc2nc(-c3c[nH]c4ncccc34)ncc2F)C1` [Compound 268, (R)-1-(3-((5-fluoro-2-(1H-pyrrolo[2,3-b]pyridin-3-yl)pyrimidin-4-ylamino)methyl)piperidin-1-yl)ethanone], the negative logarithm of the IC50 (pIC50) under setting [2] is 4.70 to 5.30.

For `CCC(=O)N1CCCC(CNc2nc(-c3c[nH]c4ncccc34)ncc2F)C1` (centres unmarked) [Compound 269], the pIC50 under setting [1] was 4.70 to 5.30.

Turning to `CCCC(=O)N1CCC[C@H](CNc2nc(-c3c[nH]c4ncccc34)ncc2F)C1` [Compound 270, (R)-1-(3-((5-fluoro-2-(1H-pyrrolo[2,3-b]pyridin-3-yl)pyrimidin-4-ylamino)methyl)piperidin-1-yl)butan-1-one], under setting [2], the pIC50 was 4.70 to 5.30.

Consider `O=C(c1ccccc1)N1CCC[C@H](CNc2nc(-c3c[nH]c4ncccc34)ncc2F)C1` [Compound 271, (R)-(3-((5-fluoro-2-(1H-pyrrolo[2,3-b]pyridin-3-yl)pyrimidin-4-ylamino)methyl)piperidin-1-yl)(phenyl)methanone], for which, under setting [2], the pIC50 is 4.70 to 5.30.

For the compound `COc1ccccc1C(=O)N1CCC[C@H](CNc2nc(-c3c[nH]c4ncccc34)ncc2F)C1` [Compound 272, (R)-(3-((5-fluoro-2-(1H-pyrrolo[2,3-b]pyridin-3-yl)pyrimidin-4-ylamino)methyl)piperidin-1-yl)(2-methoxyphenyl)methanone], under setting [2], the pIC50 was below 4.70.

In the case of `CNC(=O)N1CCC[C@H](CNc2nc(-c3c[nH]c4ncccc34)ncc2F)C1` [Compound 274], the pIC50 under setting [2] is 4.70 to 5.30.

`CCNC(=O)N1CCC[C@H](CNc2nc(-c3c[nH]c4ncccc34)ncc2F)C1` [Compound 275, (R)—N-ethyl-3-((5-fluoro-2-(1H-pyrrolo[2,3-b]pyridin-3-yl)pyrimidin-4-ylamino)methyl)piperidine-1-carboxamide]: under setting [2], the pIC50 is 4.70 to 5.30.

For the compound `CCCNC(=O)N1CCC[C@H](CNc2nc(-c3c[nH]c4ncccc34)ncc2F)C1` [Compound 276], under setting [2], the pIC50 was below 4.70.

As for `O=C(CCCCl)N1CCCC[C@@H]1CNc1nc(-c2c[nH]c3ncc(Cl)cc23)ncc1F` [Compound 278, (R)-4-chloro-1-(2-((2-(5-chloro-1H-pyrrolo[2,3-b]pyridin-3-yl)-5-fluoropyrimidin-4-ylamino)methyl)piperidin-1-yl)butan-1-one], under setting [2], the pIC50 was below 4.70.

Regarding `O=C(CC1CCCCC1)N1CCCC[C@@H]1CNc1nc(-c2c[nH]c3ncc(Cl)cc23)ncc1F` [Compound 294, (R)-1-(2-((2-(5-chloro-1H-pyrrolo[2,3-b]pyridin-3-yl)-5-fluoropyrimidin-4-ylamino)methyl)piperidin-1-yl)-2-cyclohexylethanone], under setting [2], the pIC50 was below 4.70.

Regarding `CCCS(=O)(=O)N1CCCC[C@@H]1CNc1nc(-c2c[nH]c3ncc(Cl)cc23)ncc1F` [Compound 328, (R)-2-(5-chloro-1H-pyrrolo[2,3-b]pyridin-3-yl)-5-fluoro-N-((1-(propylsulfonyl)piperidin-2-yl)methyl)pyrimidin-4-amine], the pIC50 under setting [3] was below 4.70.

In the case of `CCCCS(=O)(=O)N1CCCC[C@@H]1CNc1nc(-c2c[nH]c3ncc(Cl)cc23)ncc1F` [Compound 329, (R)—N-((1-(butylsulfonyl)piperidin-2-yl)methyl)-2-(5-chloro-1H-pyrrolo[2,3-b]pyridin-3-yl)-5-fluoropyrimidin-4-amine], the negative logarithm of the IC50 (pIC50) under setting [3] is below 4.70.

Regarding `CC(=O)N[C@@H]1CCCC[C@H]1Nc1nc(-c2c[nH]c3ncccc23)ncc1F` [Compound 348, N-[(1R,2R)-2-[[5-fluoro-2-(1H-pyrrolo[2,3-b]pyridin-3-yl)pyrimidin-4-yl]amino]cyclohexyl]acetamide], under setting [3], the pIC50 is below 4.70.

In the case of `O=C(N[C@@H]1CCCC[C@H]1Nc1nc(-c2c[nH]c3ncc(Cl)cc23)ncc1F)C1CCCC1` [Compound 351, N-[(1R,2R)-2-[[2-(5-chloro-1H-pyrrolo[2,3-b]pyridin-3-yl)-5-fluoro-pyrimidin-4-yl]amino]cyclohexyl]cyclopentanecarboxamide], the pIC50 under setting [3] is below 4.70.
